{"source": "patent US9796757B2", "about": "“Compositions and method for treating thrombosis” (The Board of Trustees of the University of Illinois, priority 2013, dated 2017)", "key": {"[1]": {"system": "lung ECs", "experiment": "ex vivo isolated buffer-perfused mouse lung vWF secretion (ELISA of perfusate)", "experimental": "Anesthetized GNA12^−/−, GNA12^−/−/EC GNA13^−/−, GNAq^−/−, and GNAq^−/−/EC GNA11^−/− mice were instrumented with a tracheal tube, cannulated via pulmonary artery, and perfused with warmed Krebs buffer at a rate of 1 ml/min for 5 minutes to remove residual blood constituents followed by treatment for 20 minutes with 2 ml recirculating Krebs buffer to assess constitutive vWF secretion. […] Following lung perfusion, lungs were minced and snap-frozen in liquid nitrogen for subsequent determination of whole lung extract vWF levels.\n(§1) Mouse samples were collected and vWF level was measured by sandwich ELISA (Lu, et al. (2011) supra). One unit of vWF was defined as the amount present in 1 ml of mouse pooled normal plasma.\nTo address the role of G protein α subunits in constitutive (basal, spontaneous) vs. PAR-1-mediated vWF secretion from endothelial cells, vWF was measured in the ex vivo isolated buffer-perfused mouse lung (IPML). Lung preparations were used to exclude platelets as a source of vWF and also hepatic stellate cells as contributors of proteases that cleave ultra large vWF strings (Lenting, et al. (2012) supra). Ventilated WT, Gα12^−/−, and EC-Gαq^−/−; Gα11^−/− mouse lungs were cannulated and perfused with warmed recirculating RPMI media via pulmonary artery and left atrial catheters in situ. To assess basal vWF secretion, precleared blood-free lungs were perfused for 15 minutes with […] of 37° C. recirculating RPMI media (approximately the same volume as the normal mouse blood volume). Samples of the recirculating buffer were collected at 5 minute intervals over a period of 30 minutes and vWF (mU/ml perfusate) was measured by ELISA.\nTo assess the mechanism of thrombin-induced vWF release from ECs via PAR-1 activation, the PAR-1-specific synthetic peptide Thr-Phe-Leu-Leu-Arg (SEQ ID NO:3) was used to stimulate lung ECs. […] The initial slope of the vWF secretion curve was used to estimate the rate of vWF release following addition of Thr-Phe-Leu-Leu-Arg (SEQ ID NO:3), which was approximately 25 mU/mL/min in WT mouse lungs. […] Under these same conditions, basal vWF secretion in the pulmonary circulation of EC-Gαq^−/−; Gα11^−/− lungs was not different from that observed in WT mice, although Thr-Phe-Leu-Leu-Arg (SEQ ID NO:3)-induced vWF release was reduced by approximately 40%. […] The presence of EC WPB vWF in en face descending aorta and paraffin-embedded lung sections was verified by immunostaining and confocal microscopy. WT, Gα12^−/−, and Gα11^−/− tissues stained positive for vWF consistent with there being equivalent vWF synthesis and storage in WPBs in WT, Gα12^−/−, and Gα11^−/− mice."}, "[2]": {"experiment": "tail-snip blood loss (primary hemostasis)", "format": "in vivo", "conditions": "EC-Gα13−/−; Gα12−/− mice; i.v. 2 μg/g BW", "experimental": "Mice were anaesthetized using 100 mg/kg ketamine and 5 mg/kg xylazine. Once unresponsive to tail pinch, 3-5 mm of the end of the tail was removed with a scalpel, the tail was immersed in 0.9% saline solution (37° C.), and time required for bleeding to stop was recorded (n=10 male mice/group, age 8-12 weeks) according to established methods (Lu, et al. (2011) Cell Res. 21:530-545). If no cessation of bleeding occurred after 30 minutes, the tail was cauterized with a cautery pencil and 30 minutes was recorded as the bleeding time. Blood loss during the bleeding time experiments was expressed as the accumulated amount of hemoglobin (Hb) bled into the container with phosphate-buffer saline in which tails were immersed. Hb (mg Hb/mL saline) was analyzed over the period of the experiment, using Hemocue HB201+ (Hemocue; Cypress, Calif.). Mice were allowed to recover in a clean cage. […]\nUsing megakaryocyte-restricted-Gα12/13 double knockout mice, it has been observed that Gα13-dependent signaling in platelets is important for hemostasis and thrombosis (Moers, et al. (2003) Nat. Med. 9(11):1418-1422). However, the molecular mechanisms and functional significance of endothelial cell Gα12 and Gα13 in primary hemostasis were not assessed. […] Hb accumulation from the cut tail immersed in saline solution was measured every 5 minutes for 15 minutes. […]"}, "[3]": {"system": "HPAEC", "experiment": "vWF secretion assay and ELISA in HPAEC", "format": "cell-based, human", "conditions": "peptide 1 μM, 1 hour pre-incubation, ELISA (FIG. 2), listed as Myr-SBD peptide", "experimental": "vWF secretion assay was as previously described (Lui-Roberts, et al. (2005) J. Cell Biol. 170:627-636). In brief, 48 hours after transfection, endothelial cells were serum-deprived for 4 hours, washed, and incubated with fresh serum-free medium in presence or absence of 25 nM thrombin, A23187 (a calcium ionophore), or culture medium alone (vehicle control). Cell culture media was collected at various time points after agonist stimulation and centrifuged for 10 minutes at 13,000×g to remove cell debris. Supernatants were assayed for vWF content by ELISA. Cells were lysed to determine total vWF secreted per 10^6 cells. The concentration of vWF was expressed as mIU/ml/10^6 cells by relating the absorbance at 450 nm to a vWF standard curve. […] To prevent potential differences in releasable vWF, the same batch of HUVEC was used for all experiments, and control and siRNA treated cells were assessed at equivalent cell densities.\nThe role of G protein signaling in basal vs. PAR1-stimulated vWF secretion from confluent, low passage, and serum-deprived HUVECs and HPAECs was subsequently determined. […]\nIt was determined whether Gα12 interaction with αSNAP plays an important role in both basal and evoked VWF secretion from endothelial cell WPBs in vitro and in vivo. […] The effect of Gα12 and Myr-SBD on vWF secretion was assessed as was mortality associated with CLP/sepsis in rodent models. […]"}, "[4]": {"system": "plasma vWF", "experiment": "plasma vWF after CLP or SHAM surgery in mice", "format": "in vivo", "conditions": "24 hours after SHAM or CLP surgery, i.v. 100 μl of 100 μM (~5 μM) at time of surgery, vs Myr-Scrambled peptide, n=3/group", "experimental": "Mice were anaesthetized by ketamine/xylazine as above and ventilated according to conventional methods. […] Plasma was prepared from citrated blood samples via centrifugation at 3,000×g for 15 minutes at room temperature and stored at −80° C. until vWF measurement by ELISA. The anesthetized mouse was then euthanized for lung tissue collection as described below.\nas §1\nIt was determined whether Gα12 interaction with αSNAP plays an important role in both basal and evoked VWF secretion from endothelial cell WPBs in vitro and in vivo. Myr-SBD peptide (1 μM; 1 hour pre-incubation) blocked both basal VWF secretion and that evoked by thrombin stimulation of HPAEC (FIG. 2). The effect of Gα12 and Myr-SBD on vWF secretion was assessed as was mortality associated with CLP/sepsis in rodent models. […] Importantly, reduced plasma vWF levels (FIG. 3B) were observed 24 hours after SHAM or CLP surgery in mice given 100 μl of 100 μM Myr-SBD (˜5 μM) as compared to mice treated with Myr-Scrambled peptide."}, "[5]": {"system": "HUVEC", "experiment": "vWF immunostaining / WPB quantification by confocal microscopy in HUVEC", "format": "cell-based, human", "experimental": "Endothelial cells cultured on gelatin-coated glass bottom dishes were fixed with 4% paraformaldehyde, permeabilized with 0.1% TRITON X-100, blocked with 5% goat serum for 1 hour, and subsequently incubated with rabbit polyclonal antibody directed against vWF (0.5 μg/ml) or contral IgG overnight at 4° C. Coverslips were washed 3× with phosphate-buffered saline and incubated for 30 minutes at room temperature in the dark with ALEXAFLUOR 555 goat anti-mouse and ALEXAFLUOR 488-labeled goat anti-rabbit secondary antibody. Coverslips were washed with phosphate-buffered saline and embedded in mounting media (VECTASHIELD). Confocal microscopy was performed using a ZEISS LSM 510 Meta microscope (Carl Zeiss MicroImaging, Inc.) equipped with 488 nm and 543 nm excitation lasers and pinhole set to achieve 1 Airy unit.\nWeibel-Palade Bodies (WPBs) were identified based on vWF immunofluorescence staining, size (approximately 3 μm long and 0.3 μm wide), and shape (elongated organelles). […] The number of WPBs per cell was counted (n=10-30) and the average fluorescence intensity per WPB/cell determined.\nTo distinguish whether the inhibitory effect of Gα12 depletion on vWF secretion is due to inhibition of vWF secretion as opposed to impaired vWF production or storage, vWF immunostaining and confocal microscopy of control siRNA and Gα12 siRNA-treated HUVECs was performed in presence or absence of thrombin stimulation.\nTo elucidate the role of Gα12 in WPBs exocytosis, HUVEC were transfected with constitutively-active GFP-tagged Gα12^Q229L mutant, GFP-tagged Gα12^WT, or GFP alone, and then confocal images of vWF immunostaining were quantified.\nThe role of Gα12/αSNAP interactions in regulation of vWF secretion was analyzed using a two-step experimental approach. First, a library of Gα12-substitution mutants (Meigs, et al. (2005) J. Biol. Chem. 280(18):18049-18055) was used, in which the primary sequence of Gα12 was replaced with the Asn-Ala-Ala-Ile-Arg-Ser (SEQ ID NO:5; NAAIRS cassette) to assess domain-specific in vitro binding of Myc-tagged Gα12^Q229L with or without ‘NAAIRS’ substitution of N-terminal amino acids 4-9 (ΔN4-9) or 10-15 (ΔN10-15) to GST-αSNAP. […] Secondly, to assess the role of Gα12 interaction with α-SNAP in vWF secretion, a GFP-tagged α-SNAP Binding Domain (aa 10-15) minigene (GFP-SBD) was constructed based on the identified Gα12•GST-αSNAP interaction."}}, "note": "No end group written: not given here. *: point of attachment. Myristoyl = CCCCCCCCCCCCCC(=O)*"}
{"compound": "CCN1C(=O)C=CC1=O", "note": "[NEM, N-Ethylmaleimide]", "values": [{"measurement": "vWF secretion", "setting": "[1]; 1 mM added to recirculating lung perfusion system for 1 minute", "value": "abolished"}]}
{"compound": "purified human plasma-derived vWF: purified human plasma-derived von Willebrand factor", "values": [{"measurement": "hemostasis (tail-snip blood loss)", "setting": "[2]", "value": "corrected"}]}
{"compound": "Thr-Phe-Leu-Leu-Arg (TFLLR) [Thr-Phe-Leu-Leu-Arg (SEQ ID NO:3)]", "values": [{"measurement": "reduction of peptide-induced vWF release vs WT", "setting": "[1]; EC-Gαq−/−, Gα11−/− mouse lungs", "value": "approximately 40%"}, {"measurement": "rate of vWF secretion", "setting": "[1]; Gα12−/− mouse lungs, 30 μM peptide in recirculating perfusate", "value": 3, "unit": "mU/mL/min"}, {"measurement": "time to peak vWF level in perfusate", "setting": "[1]; WT mice, 30 μM peptide, remained constant for up to 1 hour", "value": "10 to 15", "unit": "min"}, {"measurement": "rate of vWF release (initial slope of vWF secretion curve)", "setting": "[1]; WT mouse lungs, 30 μM peptide in recirculating perfusate", "value": "approximately 25 mU/mL/min"}]}
{"compound": "Myr-Arg-Cys-Leu-Leu-Pro-Ala (Myristoyl-RCLLPA) [Myr-SBD]", "values": [{"measurement": "basal VWF secretion", "setting": "[3]", "value": "blocks"}, {"measurement": "thrombin-evoked VWF secretion", "setting": "[3]; thrombin stimulation", "value": "blocks"}, {"measurement": "plasma vWF levels", "setting": "[4]", "value": "reduced"}]}
{"compound": "thrombin", "values": [{"measurement": "GFP-positive control cells showing reduced vWF positive WPBs", "setting": "[5]; HUVEC transfected with GFP alone, 25 nM thrombin for 15 minutes", "value": 80, "unit": "%"}, {"measurement": "decrease in intracellular vWF staining", "setting": "[5]; control siRNA HUVEC, thirty minutes after thrombin treatment", "value": "> 80", "unit": "%"}]}
{"compound": "GFP-SBD: GFP-tagged α-SNAP Binding Domain (aa 10-15) minigene expressed in HUVEC (RCLLPA; not fully specified; also: GFP-tagged minigene (fusion))", "values": [{"measurement": "thrombin-induced WPB exocytosis", "setting": "[5]; GFP-SBD minigene expressed in HUVEC", "value": "inhibited"}, {"measurement": "intracellular vWF staining following thrombin stimulation", "setting": "[5]; GFP-SBD-expressing HUVECs, control GFP cells significantly reduced (FIG. 1)", "value": "remained unchanged"}]}
